Test results taken from patent US20120122727A1, “IN VITRO METHOD FOR PREDICTING WHETHER A COMPOUND IS GENOTOXIC IN VIVO” (priority 2009, published 2012).

Test system: primary mouse hepatocytes
Test: Gene expression (Affymetrix Mouse Genome 430 2.0) in primary mouse hepatocytes, true vs false GTX, 24 h and 48 h
Conditions: 48 h; log2, corrected for vehicle control

O=c1c(O)c(-c2ccc(O)c(O)c2)oc2cc(O)cc(O)c12 [Q, Quercetin]
Gene expression AK005731 average: −0.8953 | Gene expression AK007854 average: 1.0645 | Gene expression AK010447 average: −0.1277 | Gene expression AK010738 average: 0.03457 | Gene expression AK014608 average: −0.3181 | Gene expression AK017734 average: −0.2231 | Gene expression AK018383 average: −0.06343 | Gene expression AK019979 average: −0.6456 | Gene expression AV095209 average: 0.0573 | Gene expression AV141095 average: −0.03573 | Gene expression AV173869 average: −0.3593 | Gene expression AV216768 average: 0.4269 | Gene expression AV219418 average: 0.7223 | Gene expression AV221299 average: 0.3941 | Gene expression AV246296 average: −0.449 | Gene expression AV251625 average: −0.2405 | Gene expression AV254764 average: −0.09113 | Gene expression AV327248 average: −0.1842 | Gene expression BB009155 average: −0.6448 | Gene expression BB027848 average: −0.5634 | Gene expression BB043558 average: 0.03817 | Gene expression BB046347 average: 0.3747 | Gene expression BB140436 average: 0.455 | Gene expression BB204486 average: 0.3211 | Gene expression BB223872 average: −0.2409 | Gene expression BB246912 average: 0.03943 | Gene expression BB275142 average: −0.5307 | Gene expression BB458460 average: −0.2505 | Gene expression BB463610 average: −0.254 | Gene expression BB730977 average: 0.127 | Gene expression BB743970 average: −0.1543 | Gene expression BB770528 average: −0.5238 | Gene expression BB781615 average: −0.3025 | Gene expression BC003284 average: −0.3991 | Gene expression BC004827 average: 0.3832 | Gene expression BC005552 average: 0.365 | Gene expression BC006713 average: 0.1419 | Gene expression BC010318 average: 0.2274 | Gene expression BC012247 average: 0.1853 | Gene expression BC012955 average: 0.25 | Gene expression BC013893 average: −0.5246 | Gene expression BC017615 average: −0.2786 | Gene expression BC019379 average: −0.03313 | Gene expression BC019882 average: −0.02177 | Gene expression BC021352 average: −1.143 | Gene expression BC022148 average: 0.2323 | Gene expression BC025169 average: 0.176 | Gene expression BC026131 average: 0.3886 | Gene expression BC027026 average: 0.3636 | Gene expression BC027121 average: 0.003767 | Gene expression BC027185 average: −0.4317 | Gene expression BE956581 average: 0.1063 | Gene expression BF719766 average: 0.1683 | Gene expression BG065754 average: −0.2692 | Gene expression BG066491 average: −0.6278 | Gene expression BG076151 average: −0.7006 | Gene expression BG076333 average: 0.2569 | Gene expression BG797099 average: −0.3185 | Gene expression BG967046 average: −0.2263 | Gene expression BI651416 average: −0.4982 | Gene expression BI966443 average: 0.1621 | Gene expression BM198879 average: −0.1382 | Gene expression BM200015 average: −0.2469 | Gene expression BM230508 average: −0.6707 | Gene expression BM936480 average: 0.1682 | Gene expression BQ174991 average: 0.5432 | Gene expression L21027 average: 0.4391 | Gene expression NM_007556 average: 0.4673 | Gene expression NM_007980 average: 1.051 | Gene expression NM_007987 average: −0.07343 | Gene expression NM_008522 average: −0.03917 | Gene expression NM_008935 average: 0.5881 | Gene expression NM_009897 average: 0.2468 | Gene expression NM_011075 average: −0.8714 | Gene expression NM_011176 average: −0.3579 | Gene expression NM_011316 average: −0.2485 | Gene expression NM_012006 average: 0.7373 | Gene expression NM_013642 average: 0.7153 | Gene expression NM_013738 average: −0.4434 | Gene expression NM_013929 average: 0.09257 | Gene expression NM_018881 average: 0.2667 | Gene expression NM_019738 average: −0.7691 | Gene expression NM_030697 average: 0.08597 | Gene expression NM_053122 average: −0.1158 | Gene expression NM_134147 average: −0.2048 | Gene expression NM_134188 average: 0.5773 | Gene expression X62701 average: 0.8426
